Laboratory results published in patent US20250154686A1, “COMPOUND LIBRARY” (CHUGAI SEIYAKU KABUSHIKI KAISHA, priority 2021, published 2025).

Biological target: T1, Bcl-2 protein (Recombinant Human Bcl-2 Protein) (Homo sapiens, UniProt P10415)
T1 construct: purchased Novus Biologicals NBP2-34889
Assay: AS-MS evaluation of binding of the Example 4 mixture library (1200 compounds/well) to Bcl-2, ASMS ratio (%)
Outline: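 Affinity-selection MS: after spin-column size exclusion and organic extraction, LC/MS signals give an ASMS ratio (%), referenced to protein-free samples with and without column treatment. Binding step combined 20 μM human Bcl-2 with the 1200-compound pool at 20 nM per compound, 1 h, 23° C., dark, pH 7.4 Tris-HCl/NaCl/Tween-20/DTT.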

[1] = replicate n = 1, mixture library, value belongs to the MS peak assigned to the compound
[2] = replicate n = 2, mixture library, value belongs to the MS peak assigned to the compound
[3] = AS-MS, Example 4 mixture library, Bcl-2, replicate n = 1
[4] = AS-MS, Example 4 mixture library, Bcl-2, replicate n = 2
[5] = AS-MS, mixture of 1200 compounds/well, Bcl-2 protein, replicate n = 1
[6] = AS-MS, mixture of 1200 compounds/well, Bcl-2 protein, replicate n = 2

T1 sequence (P10415 whole entry): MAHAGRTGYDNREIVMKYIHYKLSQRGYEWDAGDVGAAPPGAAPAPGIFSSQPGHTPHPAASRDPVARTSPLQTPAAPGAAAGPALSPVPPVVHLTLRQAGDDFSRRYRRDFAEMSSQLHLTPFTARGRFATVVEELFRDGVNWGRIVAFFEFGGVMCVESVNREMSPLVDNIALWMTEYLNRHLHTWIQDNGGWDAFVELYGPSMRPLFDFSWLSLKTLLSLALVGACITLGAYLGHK

| ASMS ratio (%) n = 1 [1] [%] | ASMS ratio (%) n = 2 [2] [%] | ASMS ratio (%) n = 1 [3] [%] | ASMS ratio (%) n = 2 [4] [%] | Molecule | further results |
| --- | --- | --- | --- | --- | --- |
| −1.0 | 1.4 | – | – | CCOc1cncc(-c2ccc(CN3CCN(c4ccc(C(=O)NS(=O)(=O)C(C)(C)C)nn4)CC3)cc2C)c1 [Compound B2L074-01] | – |
| – | – | 0.0 | 0.0 | CCOc1cccc(-c2cc(CN3CCN(c4ccc(C(=O)NS(=O)(=O)CCC(F)(F)F)nn4)CC3)cc(OCC)c2)c1 [Compound B2N081-01] | – |
| – | – | 32.9 | 27.2 | CCOc1cccc(-c2cc(C(=O)N3CCN(c4ccc(C(=O)NS(=O)(=O)c5ccc(NCCSc6ccccc6)c(C(F)(F)F)c5)nn4)CC3)cc(C(F)(F)F)c2)c1 [Compound B2R017-01, 6-[4-[3-(3-Ethoxyphenyl)-5-(trifluoromethyl)benzoyl]piperazin-1-yl]-N-[4-(2-phenylsulfanylethylamino)-3-(trifluoromethyl)phenyl]sulfonylpyridazine-3-carboxamide] | – |
| 0.0 | 0.0 | – | – | CCOc1cncc(-c2cnn(-c3cc(C(=O)N4CCN(c5ccc(C(=O)NS(=O)(=O)C(C)(C)C)nn5)CC4)cc(C(F)(F)F)c3)c2)c1 [Compound B2L022-01, N-tert-Butylsulfonyl-6-[4-[3-[4-(5-ethoxypyridin-3-yl)pyrazol-1-yl]-5-(trifluoromethyl)benzoyl]piperazin-1-yl]pyridazine-3-carboxamide] | – |
| 0.0 | 0.0 | – | – | CCOc1cncc(-c2cc(CN3CCN(c4ccc(C(=O)NS(C)(=O)=O)nn4)CC3)cc(OC(F)(F)F)c2)c1 [Compound B2I090-01, 6-[4-[[3-(5-Ethoxypyridin-3-yl)-5-(trifluoromethoxy)phenyl]methyl]piperazin-1-yl]-N-methylsulfonylpyridazine-3-carboxamide] | – |
| 0.0 | −1.0 | – | – | CCOc1cccc(C#Cc2ccccc2C(=O)N2CCN(c3ccc(C(=O)NS(=O)(=O)C(C)(C)C)nn3)CC2)c1 [Compound B2L007-01] | – |
| – | – | 0.0 | 0.0 | CCOc1cncc(-c2ccc(CN3CCN(c4ccc(C(=O)NS(=O)(=O)CCC(F)(F)F)nn4)CC3)c3ccccc23)c1 [Compound B2N092-01, 6-[4-[[4-(5-Ethoxypyridin-3-yl)naphthalen-1-yl]methyl]piperazin-1-yl]-N-(3,3,3-trifluoropropylsulfonyl)pyridazine-3-carboxamide] | – |
| – | – | 0.0 | 0.0 | CCOc1cncc(-c2cc(CN3CCN(c4ccc(C(=O)NS(=O)(=O)CCC(F)(F)F)cc4)CC3)cc(OC(F)(F)F)c2)c1 [Compound B2N064-01, 4-[4-[[3-(5-Ethoxypyridin-3-yl)-5-(trifluoromethoxy)phenyl]methyl]piperazin-1-yl]-N-(3,3,3-trifluoropropylsulfonyl)benzamide] | – |
| 10.5 | 0.5 | – | – | CCOc1cccc(-c2cc(CN3CCN(c4ccc(C(=O)NS(=O)(=O)CC56CC7CC(CC(C7)C5)C6)nn4)CC3)cc(OC(F)(F)F)c2)c1 [Compound B2A089-01] | – |
| 0.0 | −2.7 | – | – | CCOc1cncc(-c2cc(C(=O)N3CCN(c4ccc(C(=O)NS(C)(=O)=O)cc4)CC3)cc(C(F)(F)F)c2)c1 [Compound B2I040-01, 4-[4-[3-(5-Ethoxypyridin-3-yl)-5-(trifluoromethyl)benzoyl]piperazin-1-yl]-N-methylsulfonylbenzamide] | – |
| 0.0 | 0.0 | – | – | CCOc1cccc(-c2ccc(CN3CCN(c4ccc(C(=O)NS(=O)(=O)C(C)(C)C)cc4)CC3)cc2F)c1 [Compound B2L051-01, N-tert-Butylsulfonyl-4-[4-[[4-(3-ethoxyphenyl)-3-fluorophenyl]methyl]piperazin-1-yl]benzamide] | – |

More lines, now with the values behind:

| Molecule | ASMS ratio (%) n = 1 [1] [%] | ASMS ratio (%) n = 2 [2] [%] | ASMS ratio (%) n = 1 [3] [%] | ASMS ratio (%) n = 2 [4] [%] | further results |
| --- | --- | --- | --- | --- | --- |
| CCOc1cncc(-c2ccc(CN3CCN(c4ccc(C(=O)NS(=O)(=O)CCC(F)(F)F)cc4)CC3)c(CC)c2)c1 [Compound B2N050-01] | – | – | 0.0 | – | – |
| CCOc1cccc(C#Cc2ccccc2CN2CCN(c3ccc(C(=O)NS(C)(=O)=O)cc3)CC2)c1 [Compound B2I069-01, 4-[4-[[2-[2-(3-Ethoxyphenyl)ethynyl]phenyl]methyl]piperazin-1-yl]-N-methylsulfonylbenzamide] | 0.0 | −2.2 | – | – | – |
| CCOc1cncc(-c2csc(CN3CCN(c4ccc(C(=O)NS(=O)(=O)CCC(F)(F)F)cc4)CC3)c2)c1 [Compound B2N068-01, 4-[4-[[4-(5-Ethoxypyridin-3-yl)thiophen-2-yl]methyl]piperazin-1-yl]-N-(3,3,3-trifluoropropylsulfonyl)benzamide] | – | – | 0.0 | 0.5 | – |
| CCOc1cccc(-c2cc(CN3CCN(c4ccc(C(=O)NS(=O)(=O)C(C)(C)C)nn4)CC3)cc(OC(F)(F)F)c2)c1 [Compound B2L089-01, N-tert-Butylsulfonyl-6-[4-[[3-(3-ethoxyphenyl)-5-(trifluoromethoxy)phenyl]methyl]piperazin-1-yl]pyridazine-3-carboxamide] | – | – | 0.0 | 0.0 | – |
| CCOc1cncc(-c2ccc(CN3CCN(c4ccc(C(=O)NS(=O)(=O)CCC(F)(F)F)nn4)CC3)cc2C)c1 [Compound B2N074-01, 6-[4-[[4-(5-Ethoxypyridin-3-yl)-3-methylphenyl]methyl]piperazin-1-yl]-N-(3,3,3-trifluoropropylsulfonyl)pyridazine-3-carboxamide] | – | – | 0.0 | 0.0 | – |
| CCOc1cncc(-c2cc(CN3CCN(c4ccc(C(=O)NS(C)(=O)=O)cc4)CC3)cc(C(F)(F)F)c2)c1 [Compound B2I062-01, 4-[4-[[3-(5-Ethoxypyridin-3-yl)-5-(trifluoromethyl)phenyl]methyl]piperazin-1-yl]-N-methylsulfonylbenzamide] | 0.0 | 0.0 | – | – | – |
| CCOc1cccc(C#Cc2ccccc2C(=O)N2CCN(c3ccc(C(=O)NS(=O)(=O)c4ccc(NCCSc5ccccc5)c(C(F)(F)F)c4)nn3)CC2)c1 [Compound B2R007-01, 6-[4-[2-[2-(3-Ethoxyphenyl)ethynyl]benzoyl]piperazin-1-yl]-N-[4-(2-phenylsulfanylethylamino)-3-(trifluoromethyl)phenyl]sulfonylpyridazine-3-carboxamide] | – | – | 0.0 | – | – |
| CCOc1cccc(-c2csc(CN3CCN(c4ccc(C(=O)NS(=O)(=O)c5ccc(NCCSc6ccccc6)c(C(F)(F)F)c5)cc4)CC3)c2)c1 [Compound B2R067-01, 4-[4-[[4-(3-Ethoxyphenyl)thiophen-2-yl]methyl]piperazin-1-yl]-N-[4-(2-phenylsulfanylethylamino)-3-(trifluoromethyl)phenyl]sulfonylbenzamide] | – | – | 8.0 | 0.0 | – |
| CCCNC(=O)c1ccc(N2CCN(C(=O)c3cc(-n4cc(-c5cncc(OCC)c5)cn4)cc(C(F)(F)F)c3)CC2)nn1 [Compound B1M022-01] | – | – | – | – | ASMS ratio (%) n = 1 [5]: −13.6%; ASMS ratio (%) n = 2 [6]: 6.7% |
| 4-[4-[[4-(5-Ethoxypyridin-3-yl)-2-ethylphenyl]methyl]piperazin-1-yl]-N-propylbenzamide [Compound B1M075-01] | – | – | – | – | ASMS ratio (%) n = 1 [5]: 77.3%; ASMS ratio (%) n = 2 [6]: 46.1% |
| CCOc1cccc(C#Cc2cc(C(=O)N3CCN(c4ccc(C(=O)NS(=O)(=O)c5ccc(NCCSc6ccccc6)c(C(F)(F)F)c5)cc4)CC3)cc(C(F)(F)F)c2)c1 [Compound B2R041-01, 4-[4-[3-[2-(3-Ethoxyphenyl)ethynyl]-5-(trifluoromethyl)benzoyl]piperazin-1-yl]-N-[4-(2-phenylsulfanylethylamino)-3-(trifluoromethyl)phenyl]sulfonylbenzamide] | – | – | 18.0 | 0.0 | – |
| CCCNC(=O)c1ccc(N2CCN(C(C)c3ccc(-c4cncc(OCC)c4)cc3)CC2)cc1 (stereo not shown) [Compound B1M098-01] | – | – | – | – | ASMS ratio (%) n = 1 [5]: 0.9%; ASMS ratio (%) n = 2 [6]: 0.3% |
| CCOc1cncc(-c2ccc(C(=O)N3CCN(c4ccc(C(=O)NS(=O)(=O)CCC(F)(F)F)cc4)CC3)cc2C)c1 [Compound B2N026-01, 4-[4-[4-(5-Ethoxypyridin-3-yl)-3-methylbenzoyl]piperazin-1-yl]-N-(3,3,3-trifluoropropylsulfonyl)benzamide] | – | – | −1.5 | −0.7 | – |
| CCOc1cncc(-c2ccc(CN3CCN(c4ccc(C(=O)NS(C)(=O)=O)nn4)CC3)cc2C)c1 [Compound B2I074-01, 6-[4-[[4-(5-Ethoxypyridin-3-yl)-3-methylphenyl]methyl]piperazin-1-yl]-N-methylsulfonylpyridazine-3-carboxamide] | 0.0 | −8.4 | – | – | – |
| CCOc1cncc(-c2ccc(C(C)N3CCN(c4ccc(C(=O)NS(=O)(=O)CCC(F)(F)F)cc4)CC3)cc2)c1 (stereo not shown) [Compound B2N098-01, 4-[4-[1-[4-(5-Ethoxypyridin-3-yl)phenyl]ethyl]piperazin-1-yl]-N-(3,3,3-trifluoropropylsulfonyl)benzamide] | – | – | 0.0 | −0.7 | – |
| CCOc1cncc(-c2ccccc2CCC(=O)N2CCN(c3ccc(C(=O)NS(=O)(=O)C(C)(C)C)cc3)CC2)c1 [Compound B2L034-01, N-tert-Butylsulfonyl-4-[4-[3-[2-(5-ethoxypyridin-3-yl)phenyl]propanoyl]piperazin-1-yl]benzamide] | 1.6 | 3.5 | – | – | – |
